Earlier results in US7208615B2, “Triple mineral salts of (-)-hydroxycitric acid and processes for preparing the same” (Laila Impex, priority 2004, dated 2007).

Assays:
[1] = background art; forms lactone, liquid form unstable during storage
[2] = background art (US 5,783,603)

Row | Molecule | stability of free acid form [1] | hygroscopicity [2]
1 | O=C(O)CC(O)(C(=O)O)C(O)C(=O)O (single isomer, unassigned; (-)) [(−)-hydroxycitric acid] | unstable | –
2 | potassium salt of HCA | – | hygroscopic
